Measured values from patent publication US10821115B2, “Compounds that inhibit Mcl-1 protein” (priority 2017, dated 2020).
Where two headings read alike, the source gives them in different places.

Columns and labels:
[1] = molecular target: recombinant human Mcl-1 (residues 171-327) / Bim interaction (Homo sapiens (Human), UniProt Q07820); experiment: biochemical; format: binding; conditions: read-out: Mcl-1 HTRF IC50
[2] = tested on: human multiple myeloma cell line, OPM-2; experiment: Cell viability assay (OPM-2 10 FBS), CellTiter-Glo; format: cell-based
Procedure, shortened: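 OPM-2 cells at 3000 cells/well in RPMI 1640 with 10% FBS were exposed to serially diluted compounds for 16 h at 37 °C, 5% CO2.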

[3] = TR-FRET, Mcl-1(171-327) / biotin-Bim (51-76)
[4] = read-out: OPM-2 10% FBS IC50 IP, OPM-2 cells, 10% FBS, 16 h, CellTiter-Glo
[5] = 0.1 nM Mcl-1(171-327), 0.05 nM biotin-Bim (51-76)
[6] = read-out: OPM-2 10% FBS IC50 IP, OPM-2 cells, 10% FBS, 16 h incubation
[7] = Homo sapiens, OPM-2, 16 h, read-out: OPM-2 10% FBS IC50 IP, OPM-2 cells, 10% FBS, 16 h incubation
[8] = Homo sapiens, OPM-2, 16 h, read-out: OPM-2 10% FBS IC50 IP, OPM-2 cells, 10% FBS, 16 h, CellTiter-Glo

Sequence of recombinant human Mcl-1 (residues 171-327) / Bim interaction (Q07820 171-327): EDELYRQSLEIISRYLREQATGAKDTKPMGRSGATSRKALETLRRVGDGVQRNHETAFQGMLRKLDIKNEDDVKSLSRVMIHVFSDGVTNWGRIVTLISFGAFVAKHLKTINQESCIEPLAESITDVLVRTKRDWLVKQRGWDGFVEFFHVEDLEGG

Q: For C[C@@H]1[C@@H](C)CCC[C@@](O)(CC(=O)N2CCCCC2)[C@@H]2CC[C@H]2CN2C[C@@]3(CCCc4cc(Cl)ccc43)COc3ccc(cc32)C(=O)NS1(=O)=O [Example 100089, (1S,3′R,6′R,7′R,11′S,12′R)-6-chloro-7′-hydroxy-11′,12′-dimethyl-7′-(2-oxo-2-(1-piperidinyl)ethyl)-3,4-dihydro-2H,15′H-spiro[naphthalene-1,22′-[20]oxa[13]thia[1,14]diazatetracyclo [14.7.2.0~3,6~.0~19,24~]pentacosa[16,18,24]trien]-15′-one 13′,13′-dioxide], which IC50 [1, 3] is on record?
A: The IC50 was 0.000348 µM.

Q: And the IC50 [2, 4]?
A: The IC50 was 0.325 µM.

Q: With “(1S,3′R,6′R,7′S,8′E,11′S,12′R)-6-chloro-7′-((9aS)-hexahydropyrazino[2,1-c][1,4]oxazin-8(1H)-ylmethyl)-7′-methoxy-11′-methyl-3,4-dihydro-2H,16′H-spiro[naphthalene-1,23′-[21]oxa[27]thia[1,15]diazapentacyclo[15.7.2.1-12,15˜.0˜3,6˜.0˜20,25˜]heptacos a[8,17,19,25]tetraen]-16′-one 27′,27′-dioxide [Example 364]” as the molecule, how does the IC50 [1, 5] read?
A: The IC50 was 0.193 µM.

Q: And the IC50 [2, 6]?
A: Its IC50 is over 33.3 µM.

Q: With CO[C@@]1(CN2CCCCC2)/C=C/C[C@H](C)[C@@H](C)S(=O)(=O)NC(=O)c2ccc3c(c2)N(C[C@@H]2CC[C@H]21)C[C@@]1(CCCc2cc(Cl)ccc21)CO3 [Example 75, (1S,3′R,6′R,7′S,8′E,11′S,12′R)-6-chloro-7′-methoxy-11′,12′-dimethyl-7′-(1-piperidinylmethyl)-3,4-dihydro-2H,15′H-spiro[naphthalene-1,22′-[20]oxa[13]thia[1,14]diazatetracyclo [14.7.2.0~3,6~.0~19,24~]pentacosa[8,16,18,24]tetraen]-15′-one 13′,13′-dioxide] as the molecule, how does the IC50 [1, 5] read?
A: The IC50 was 0.00205 µM.

Q: And the IC50 [2, 7]?
A: The IC50 was 1.61 µM.

Q: How did the IC50 [1, 5] turn out when CO[C@@]1(CN2CCC(N(C)C)CC2)/C=C/C[C@H](C)[C@@H](C)S(=O)(=O)NC(=O)c2ccc3c(c2)N(C[C@@H]2CC[C@H]21)C[C@@]1(CCCc2cc(Cl)ccc21)CO3 [Example 118, (1S,3′R,6′R,7′S,8′E,11′S,12′R)-6-chloro-7′-((4-(dimethylamino)-1-piperidinyl)methyl)-7′-methoxy-11′,12′-dimethyl-3,4-dihydro-2H,15′H-spiro[naphthalene-1,22′-[20]oxa[13]thia[1,14]diazatetracyclo [14.7.2.0~3,6~.0~19,24~]pentacosa[8,16,18,24]tetraen]-15′-one 13′,13′-dioxide] was run?
A: The IC50 was 0.000215 µM.

Q: And the IC50 [2, 7]?
A: Its IC50 is 0.558 µM.

Q: Which results are given for CO[C@@]1(CN2CCn3ccnc3C2)/C=C/C[C@H](C)[C@@H](C)S(=O)(=O)NC(=O)c2ccc3c(c2)N(C[C@@H]2CC[C@H]21)C[C@@]1(CCCc2cc(Cl)ccc21)CO3 [Example 201, (1S,3′R,6′R,7′S,8′E,11′S,12′R)-6-chloro-7′-(5,6-dihydroimidazo[1,2-a]pyrazin-7(8H)-ylmethyl)-7′-methoxy-11′,12′-dimethyl-3,4-dihydro-2H,15′H-spiro[naphthalene-1,22′-[20]oxa[13]thia[1,14]diazatetracyclo [14.7.2.0~3,6~.0~19,24~]pentacosa[8,16,18,24]tetraen]-15′-one 13′,13′-dioxide]?
A: IC50 [1, 5]: 0.000119 µM; IC50 [2, 7]: 0.244 µM

Q: For Cc1cc(C[C@]2(O)/C=C/C[C@H](C)[C@@H](C)S(=O)(=O)NC(=O)c3ccc4c(c3)N(C[C@@H]3CC[C@H]32)C[C@@]2(CCCc3cc(Cl)ccc32)CO4)no1 [Example 100541, (1S,3′R,6′R,7′S,8′E,11′S,12′R)-6-chloro-7′-hydroxy-11′,12′-dimethyl-7′-((5-methyl-1,2-oxazol-3-yl)methyl)-3,4-dihydro-2H,15′H-spiro[naphthalene-1,22′-[20]oxa[13]thia[1,14]diazatetracyclo [14.7.2.0~3,6~.0~19,24~]pentacosa[8,16,18,24]tetraen]-15′-one 13′,13′-dioxide], which IC50 [1, 3] is on record?
A: Its IC50 is 0.00076 µM.

Q: And the IC50 [2, 8]?
A: Its IC50 is 0.826 µM.

Q: CO[C@@]1(c2ccc(F)nc2)/C=C/C[C@H](C)[C@@H](C)S(=O)(=O)NC(=O)c2ccc3c(c2)N(C[C@@H]2CC[C@H]21)C[C@@]1(CCCc2cc(Cl)ccc21)CO3 (single isomer, unassigned) [Example 100535] was tested. Which IC50 [1, 3] did it give?
A: The IC50 was 0.00057 µM.

Q: And the IC50 [2, 4]?
A: The IC50 was 0.964 µM.

Q: What does the source list for CC(C)[C@]1(O)/C=C/C[C@H](C)[C@@H](C)S(=O)(=O)NC(=O)c2ccc3c(c2)N(C[C@@H]2CC[C@H]21)C[C@@]1(CCCc2cc(Cl)ccc21)CO3 [Example 100208, (1S,3′R,6′R,7′S,8′E,11′S,12′R)-6-chloro-7′-hydroxy-11′,12′-dimethyl-7′-(2-propanyl)-3,4-dihydro-2H,15′H-spiro[naphthalene-1,22′-[20]oxa[13]thia[1,14]diazatetracyclo [14.7.2.0~3,6~.0~19,24~]pentacosa[8,16,18,24]tetraen]-15′-one 13′,13′-dioxide]?
A: IC50 [1, 3]: 0.000431 µM; IC50 [2, 8]: 0.318 µM

Q: For CO[C@@]1(CN2CCN3CC[C@H](F)C[C@@H]3C2)/C=C/C[C@H](C)[C@@H](C)S(=O)(=O)NC(=O)c2ccc3c(c2)N(C[C@@H]2CC[C@H]21)C[C@@]1(CCCc2cc(Cl)ccc21)CO3 [Example 274], which IC50 [1, 5] is on record?
A: The IC50 was 0.000285 µM.

Q: And the IC50 [2, 6]?
A: Its IC50 is 0.232 µM.

Q: Which results are given for C[C@@H]1[C@@H](C)CCC[C@](O)(Cc2ccccc2)[C@@H]2CC[C@H]2CN2C[C@@]3(CCCc4cc(Cl)ccc43)COc3ccc(cc32)C(=O)NS1(=O)=O (single isomer, unassigned) [Example 100319]?
A: IC50 [1, 3]: 0.000126 µM; IC50 [2, 8]: 0.506 µM

Q: With C[C@@H]1[C@@H](C)CC2C=CC[C@@](O)(C2)[C@@H]2CC[C@H]2CN2C[C@@]3(CCCc4cc(Cl)ccc43)COc3ccc(cc32)C(=O)NS1(=O)=O (stereo in doubt) [Example 100058, (1S,3′R,6′R,7′R,11′S,13′S,14′R)-6-chloro-7′-hydroxy-13′,14′-dimethyl-3,4-dihydro-2H,17′H-spiro[naphthalene-1,24′-[22]oxa[15]thia[1,16]diazapentacyclo [16.7.2.1~7,11~.0~3,6~.0~21,26~]octacosa [9,18,20,26]tetraen]-17′-one 15′,15′-dioxide] as the molecule, how does the IC50 [1, 3] read?
A: The IC50 was 0.00176 µM.

Q: What about the IC50 [2, 8] of the same molecule?
A: The IC50 was 3.36 µM.

Q: What does the source list for CO[C@@]1(CN2CC(CO)(CO)C2)/C=C/C[C@H](C)[C@@H](C)S(=O)(=O)NC(=O)c2ccc3c(c2)N(C[C@@H]2CC[C@H]21)C[C@@]1(CCCc2cc(Cl)ccc21)CO3 [Example 206, (1S,3′R,6′R,7′S,8′E,11′S,12′R)-7′-((3,3-bis(hydroxymethyl)-1-azetidinyl)methyl)-6-chloro-7′-methoxy-11′,12′-dimethyl-3,4-dihydro-2H,15′H-spiro[naphthalene-1,22′-[20]oxa[13]thia[1,14]diazatetracyclo [14.7.2.0~3,6~.0~19,24~]pentacosa[8,16,18,24]tetraen]-15′-one 13′,13′-dioxide]?
A: IC50 [1, 5]: 0.000223 µM; IC50 [2, 7]: 6.3 µM

Q: For CO[C@]1(CCO)/C=C/C[C@H](C)[C@@H](C)S(=O)(=O)NC(=O)c2ccc3c(c2)N(C[C@@H]2CC[C@H]21)C[C@@]1(CCCc2cc(Cl)ccc21)CO3 [Example 100217, (1S,3′R,6′R,7′R,8′E,11′S,12′R)-6-chloro-7′-(2-hydroxyethyl)-7′-methoxy-11′,12′-dimethyl-3,4-dihydro-2H,15′H-spiro[naphthalene-1,22′-[20]oxa[13]thia[1,14]diazatetracyclo [14.7.2.0~3,6~.0~19,24~]pentacosa[8,16,18,24]tetraen]-15′-one 13′,13′-dioxide], which IC50 [1, 3] is on record?
A: Its IC50 is 0.000183 µM.

Q: And the IC50 [2, 8]?
A: Its IC50 is 0.13 µM.
